Patent US12371664B2, “Medium for direct differentiation of pluripotent stem cell-derived mesenchymal stem cell, method for preparing mesenchymal stem cell by using same, and mesenchymal stem cell prepared thereby” (CHA BIOTECH CO., LTD., priority 2018, dated 2025)

Key:
[1] = system: human embryonic stem cells; experiment: Analysis of cytomorphological features (spindle shape) under a phase-contrast microscope; assay type: cell-based; conditions: FIG. 10; 10 μM RS1, 10 μM Y27632, 1 μM SB431542 as applicable
Description: For analysis of cytomorphological features of mesenchymal stem cells obtained in Example 1 and Comparative Example 1, a mesenchymal stem cell-specific proliferation pattern (spindle shape) was identified under a phase-contrast microscope (Nikon TE-2000), and the results are shown in FIGS. 2 and 3, respectively.
For analysis of cytomorphological difference by treatment with the DNA repair agent or the ROCK inhibitor alone on the basis of period, morphologies of cells of Example 1 and Comparative Examples 2 and 3 were analyzed in the same manner as in Experimental Example 1. As a control, cells treated with the TGF-β inhibitor SB431542 alone without being treated with both the DNA repair agent and the ROCK inhibitor were used, and the results are shown in FIG. 10.

[2] = system: transcription factor required for endodermal differentiation / mesodermal differentiation; conditions: background art; cited from earlier work

## NC(=O)c1ccc(-c2nc(-c3ccc4c(c3)OCO4)c(-c3ccccn3)[nH]2)cc1.O [SB431542, 4-[4-(1,3-benzodioxol-5-yl)-5-(2-pyridinyl)-1H-imidazol-2-yl]-benzamide hydrate]
[1]
  cytomorphological observation (mesenchymal stem cell proliferation pattern of the spindle shape): most of the cells disappeared on the 30th day and uniformity deteriorated
[2]
  concentration having effects on inhibiting the transcription factor for endodermal differentiation and increasing that for mesodermal differentiation: ≥ 1 µM
